Assay results from US9133230B2, “Hydrazone derivatives having potent antitumor activity toward multi-drug resistant tumor cells” (THE UNITED STATES OF AMERICA AS REPRESENTED BY THE …, priority 2011, dated 2015).

Legend:
Type in all cases: cell-based
[1] = test system: human myelogenous leukemia K562; test: MTS cytotoxicity assay, K562; conditions: Homo sapiens, K562, 48 h incubation
Method: (§1) In order to obtain information about the growth-inhibiting action of hydrazones reported in the present invention on tumor cells, growth inhibition was assessed for the following human tumor cell lines: human myelogenous leukemia K562, human cervical adenocarcinoma HeLa, human colon adenocarcinoma Caco-2, human colon carcinoma HT-29, human colon carcinoma HCT-15, and human breast carcinoma MCF-7.
(§2) The K562, HeLa, HT-29, HCT-15, Caco-2, and MCF-7 cell lines were obtained from the American type Culture Collection (ATCC, Manassas, Va.). K562 cells were maintained in RPMI 1640 medium (Gibco/Life Technologies, Gaithersburg, Md.) containing 10% heat-inactivated fetal bovine serum (FBS) (Atlanta Biologicals, Atlanta, Ga.) and 10000 U/L penicillin and 50 mg/L streptomycin. HeLa, HT-29, HCT-15, Caco-2 and MCF-7 cells were maintained in MEM with Earl's balanced salts, 10% FBS, penicillin, and streptomycin as above. Logarithmically growing HT-29, Caco-2, and MCF-7 cells were incubated with 0.05% trypsin containing 1 mM EDTA at 37° C. for about 5 min until cells were nonadherent and formed a single cell suspension. Trypsin activity was neutralized by adding 20-fold excess of the serum-containing medium. Cells were cultured at 37° C. in an atmosphere of air and 5% CO2.
(§3) Cytotoxicity assays were conducted by tetrazolium reduction of 3-(4,5-dimethylthiazol-2-yl)-5-(3-carboxymethoxyphenyl)-2-(4-sulfophenyl)-2H-tetrazolium (MTS) with N-methylphenazonium methyl sulfate (PMS) (CellTiter Assay, Promega, Madison, Wis.). Logarithmically growing cells were plated in 0.1 mL aliquots in 96-well microtiter plates. Cells were plated at an initial density of about 5000 cells/mL and allowed to acclimatize for 24 h. Cell suspensions were treated with various dilutions of compounds in triplicate, mixed well, and allowed to incubate for 48 h at 37° C. in an atmosphere of air and 5% CO2. To the cell suspension was added 20 μL of tetrazolium reagent, the mixture was incubated for 2 h at 37° C. in an atmosphere of air and 5% CO2, and absorbance at 490 nm was read by microplate reader. Control plates with serial dilutions of cell types were counted as a control for the assay. In all cases, controls indicated a linear response versus cell number, R^2≧0.99.

[2] = test system: human cervical adenocarcinoma HeLa; test: MTS cytotoxicity assay, HeLa; conditions: Homo sapiens, HeLa, 48 h incubation
Method: as §1, §2, §3

[3] = test system: human colon carcinoma HT-29; test: MTS cytotoxicity assay, HT-29; conditions: Homo sapiens, HT-29, 48 h incubation
Method: as §1, §2, §3

[4] = test system: human colon carcinoma HCT-15; test: MTS cytotoxicity assay, HCT-15; conditions: Homo sapiens, HCT-15, 48 h incubation
Method: as §1, §2, §3

[5] = test system: nonsmall cell lung cancer cell lines; test: NCI 60 human tumor cell line screen, NSCL; conditions: Homo sapiens, arithmetic mean of two to nine cancer cell lines, read-out: Inhibitory concentration GI50, NSCL
Description: (§4) Selected compounds were submitted for testing in the organ-specific panel of human tumor cell lines at the National Cancer Institute, Bethesda, Md. This screen utilized 60 human tumor cell lines, representing leukemia, melanoma, and cancers of the lung, colon, brain, ovary, kidney, prostate, and breast (Boyd, M. R., “Status of the NCl preclinical antitumor drug discovery screen”. In Principles and practice of oncology updates; De Vita, V. T., Jr. Hellman, S., Rosenberg, S. A., Eds.; Lippincott: Philadelphia, Pa., 1989; Vol. 3, pp 1-12).
(§5) The MG MID value is the average of the GI50 values for all the cell lines tested for drug concentrations in the range of 10^−4-10^−8 M (See website domain: dtp.nci.nih.gov/dtp).

melanoma cell lines = test: NCI 60 human tumor cell line screen, melanoma; conditions: Homo sapiens, arithmetic mean of two to nine cancer cell lines, read-out: Inhibitory concentration GI50, melanoma
Description: as §4, §5

[6] = test system: ovarian cancer cell lines; test: NCI 60 human tumor cell line screen, ovarian; conditions: Homo sapiens, arithmetic mean of two to nine cancer cell lines, read-out: Inhibitory concentration GI50, ovarian
Description: as §4, §5

renal cancer cell lines = test: NCI 60 human tumor cell line screen, renal; conditions: Homo sapiens, arithmetic mean of two to nine cancer cell lines, read-out: Inhibitory concentration GI50, renal
Description: as §4, §5

breast cancer cell lines = test: NCI 60 human tumor cell line screen, breast; conditions: Homo sapiens, arithmetic mean of two to nine cancer cell lines, read-out: Inhibitory concentration GI50, breast
Description: as §4, §5

[7] = test system: 60 human tumor cell lines; test: NCI 60 human tumor cell line screen, all cell lines
Description: as §4, §5

HL60-VCR = test: MTS cytotoxicity on MDR tumor cells, HL60-VCR; conditions: HL60/VCR, Vincristine (VCR) resistant, 72 hr incubation
[8] = test system: human colorectal carcinoma HT29; test: Western blot of signal transduction pathways in HT29 cells; conditions: HT29, IC50 dose
Method: The newly synthesized hydrazones RPC038, RPC042, and RPC046 had shown anti-tumor activity against 60 human cancer cell lines panel of the National Cancer Institute and on multi-drug resistant cell lines. The present studies were conducted to evaluate their action on signal transduction pathways in human colorectal carcinoma HT29. All the three compounds were examined at their IC50 doses.
Human colorectal carcinoma HT29 cells were obtained from the National Cancer Institute, Bethesda, Md., USA, and maintained in 5% CO2 at 37° C. in minimum essential media (Life Technologies, Inc., Grand Island, N.Y., USA) supplemented with 1% penicillin, streptomycin (Invitrogen, Carlsbad, Calif., USA), and 10% fetal bovine serum for optimal growth. HT29 cells (1×10^6) were plated in […], and 24 h later, fresh media was added and treated with the RPC038, RPC042 and RPC046 for indicated time points (2, 4, 8, 16 and 24 h). The cells were then washed with cold phosphate buffered saline (PBS) and taken in 1 ml PBS on ice and centrifuged at 4° C. The pellet was resuspended in appropriate volumes of radio immunoprecipitation assay buffer with protease inhibitor, kept on ice for 45 min and subsequently centrifuged at 4° C. An aliquot of supernatant (protein extract) was used to estimate the protein concentration. An aliquot of protein extract (40 μg) was subjected to Western blot analysis on a 12% polyacrylamide gel and transferred to nitrocellulose membrane. Blots were blocked, incubated with primary anti-pMEK, pERK, pJNK, pcjun, ERK, JNK, Cjun, Caspase-8, Caspase-6, PARP cleavage, or GAPDH antibodies (Cell Signaling Technology, Danvers, Mass.) and then conjugated with a secondary anti-mouse or an anti-rabbit horseradish […] antibody, and detected by ChemiDoc™ XRS+ System with Image Lab™ Software.

## C(=NNc1ncnc2[nH]cnc12)c1ccccn1 [I-18, 6-(2-(Pyridin-2-ylmethylene)hydrazinyl)-9H-purine]
[1]
  GI50: 2300 nM
[2]
  GI50: 1900 nM
[3]
  GI50: 3500 nM
[4]
  GI50: 2000 nM
[5]
  GI50: 1230 nM
Melanoma cell lines
  GI50: 753 nM
[6]
  GI50: 629 nM
Renal cancer cell lines
  GI50: 1480 nM
Breast cancer cell lines
  GI50: 1150 nM
[7]; Homo sapiens, average of the GI50 values for all the cell lines tested, drug concentrations 10^−4-10^−8 M, read-out: MG-MID (mean graph midpoint)
  mean GI50 (MG-MID): 977 nM
[7]; NCI screen, by cancer type
  cells found to be the most sensitive: prostate, ovarian, CNS, and melanoma cancer cell lines
HL60-VCR
  GI50: 700 nM
[8]; Western blot pERK
  phosphorylation of ERK (time): 4 h
[8]; Western blot pJNK (results not shown)
  phosphorylation of JNK: without phosphorylation of JNK
[8]; Western blot pMEK
  MEK activation (time): 2 h
[8]; Western blot pcjun
  activation of cjun (time): 6 h
[8]; initial studies
  Caspase activation: Caspase-3 activation through Caspase-6 and not through Caspase-8
